Columns and labels:
breast cancer = assay: Breast cancer patients treated with bevacizumab in the neoadjuvant setting; assay type: in vivo, human; settings: normal weight patients
AK4.4 tumors = assay: Orthotopic AK4.4 PDAC in lean and obese FVB mice (5-FU, losartan, TAN depletion); assay type: in vivo, mouse; settings: for response to chemotherapy: losartan with 5-FU
Text: (§1) Wild-type (WT) C57BL/6 and FVB male mice were originally obtained from Jackson Laboratory (The Jackson Laboratory, Bar Harbor, Me.) and bred and maintained in our defined-flora colony. KPC (Ptfl-Cre/LSL-KRAS^G12D/p53-R172H) and iKRAS (p48-Cre;R26-rtTa-IRES-EGFP;TetO-Kras^G12D mice) mice were obtained. To generate an obese model, mice (6-week old) were given either 10% or a 60% fat diet (D12450J and D12492, Research Diets, New Brunswick, N.J.) for 10 weeks (or until tumor collection in spontaneous models), as previously described (Surwit, R. S., et al. Metabolism: clinical and experimental 44, 645-651 (1995)). For implanted tumor experiments, AK4.4 cells (KrasG12D and p53 ? /−) were isolated from mice generating spontaneous pancreatic tumors (Ptf1-Cre/LSL-Kras^G12D/p53Lox/ ? ) (Bardeesy, N., et al. Proc Natl Acad SciUSA103, 5947-5952 (2006)). Orthotopic pancreatic tumors were generated by implanting a small piece (1 mm^3) of viable tumor tissue (from a source tumor in a separate animal) into the pancreas of a 6-8 week-old male lean or obese FVB (AK4.4 model) or C57BL/6 (PAN02 model) mouse. PAN02 tumor chunks and AK4.4 cells were authenticated by IDEXX laboratories. (PAN02: IDEXX RADIL Case # 22366-2013. AK4.4: IDEXX RADIL Case #27818-2014). For AT1- and AT2-knockout studies, tumors were implanted into the pancreas of a 6-8-week-old male lean or obese C57BL/ 6, agtr1 a−/− or agtr2−/− mice.
(§2) For all experiments unless specified below, mice bearing orthotropic PAN02 or AK4.4 pancreatic tumors were randomized into treatment groups (or no treatment) and tumors were collected at day 21 after implantation. For tumor growth study with chemotherapy, mice were divided into treatment groups 7 days after implantation, and treated with either 5-FU (30 mg/Kg i.v. every 4 days) or an equal volume of saline by intravenous injection on days 7, 11 and 15 after implantation, with tumors collected at day 19. For tumor growth study with losartan, mice were treated with losartan (90 mg/Kg i.p. every day) or an equal volume of PBS intraperitoneally starting on day 5 after implantation and for the duration of the study. In the combined experiment of losartan and 5-FU, the same protocol was used for each drug as described above. TAN depletion by a Ly6G specific inhibitor (BioExcell, 4 mg/Kg i.p. every 2 days) was administered to PAN02 bearing animals starting at day 1 or day 7, and to AK4.4 bearing animals at day 7. IL-1β inhibition (MM425B, Endogen/Pierce Biotechnology, 2 mg/Kg i.p. every 2 days) was administered to PAN02 bearing animals starting at day 7. At the completion of the study, adipose tissue and tumor samples were collected, weighed, and processed for further analysis. When spontaneous models were used, tumors were collected when palpable.
(§3) Angiotensin inhibitor losartan was obtained as pills, crushed and dissolved in PBS over 24 h. The solution was then sterile filtered for injection. Doxorubicin and 5-FU were obtained as solutions for injection. All drugs were purchased from the pharmacy at Massachusetts General
(§4) To assess obesity-induced ECM remodeling and fibrosis fibrillar collagen accumulation was quantified using second harmonic generation imaging, and collagen-I content, hyaluronan, MMPs levels and fibrosis related signaling pathways (e.g. AT-I, CTGF, TSP1, TGFβ1, and P38/ERK signaling) were measured by rtPCR array, immunohistochemistry and immunoblotting. The topographical distribution and density of cancer-associated fibroblasts (CAFs) in tumor sections was detected by staining for αSMA activated fibroblast marker. Vessel morphology and perfusion was assessed using standard histological analyses.

PAN02 tumors [1] = assay: Orthotopic PAN02 PDAC in lean and obese C57BL/6 mice (5-FU, losartan, TAN depletion, IL-1β inhibition); assay type: in vivo, mouse; settings: for gene and protein expression of activated PSC marker αSMA: losartan 90 mg/Kg i.p. every day
Text: as §1, §2, §3, §4

PAN02 tumors [2] = assay: Delivery of chemotherapy to tumors in lean and obese mice; settings: 5-FU 30 mg/kg, 30 min prior to tumor removal, HPLC
[3] = obese mice, losartan monotherapy
[4] = tumors from lean mice, losartan
[5] = tumors from obese but not lean mice, losartan
[6] = tumors from obese mice, losartan
[7] = lean mice, 3 doses of 5-FU 30 mg/kg BW q4d
[8] = obese conditions, 5-FU 30 mg/kg q4d

bevacizumab: antibody against VEGF
tumor hypoxia (breast cancer): acutely increases tumor hypoxia
tumor vessels (breast cancer): reduces tumor vessels

CCCCc1nc(Cl)c(CO)n1Cc1ccc(-c2ccccc2-c2nn[nH]n2)cc1 [losartan]
desmoplasia-related markers and AT1 downstream signaling (AK4.4 tumors; lean animals, losartan): only modest
gene and protein expression of activated PSC marker αSMA (AK4.4 tumors; lean animals, losartan): only mildly
response to chemotherapy (AK4.4 tumors; lean setting): improved response to chemotherapy
enrichment for GR(+)F480(-) cells within the CD45 population (AK4.4 tumors; losartan treatment): tended to decrease the enrichment
enrichment for T regulatory cells within CD4 cells (AK4.4 tumors; losartan treatment): tended to decrease
cytokine expression in tumors (multiplex protein) (AK4.4 tumors; obese mice, losartan): reduced the expression of multiple cytokines including IL-1β
desmoplasia-related markers (AT1, TGF-β, SMAD2, vimentin, E-cadherin, snail, MMP9, decorin) and AT1 downstream signaling (AK4.4 tumors; obese mice, losartan): normalized the obesity-induced abnormal expression
tumor weight (AK4.4 tumors; [3]): reduced tumor weight
response to chemotherapy (AK4.4 tumors; obese setting): higher magnitude
gene and protein expression of collagen-I and fibrillar collagen (AK4.4 tumors; [4]): not lean mice
gene and protein expression of activated PSC marker αSMA (AK4.4 tumors; tumors from obese animals, losartan 90 mg/Kg i.p. every day): reduce gene and protein expression
chemotherapy delivery (AK4.4 tumors; [5]): increase chemotherapy delivery
tumor perfusion (AK4.4 tumors; [5]): tended to improve perfusion
gene and protein expression of collagen-I and fibrillar collagen (AK4.4 tumors; [6]): decrease in gene and protein expression of collagen-I as well as fibrillar collagen
gene and protein expression of activated PSC marker αSMA (PAN02 tumors [1]; lean animals): only mildly
response to chemotherapy (PAN02 tumors [1]; obese animals, losartan with 5-FU): improved response to chemotherapy
cytokine expression in tumors (multiplex protein) (PAN02 tumors [1]; obese mice, losartan): reduced the expression of multiple cytokines including IL-1β
tumor weight (PAN02 tumors [1]; [3]): reduced tumor weight
gene and protein expression of collagen-I and fibrillar collagen (PAN02 tumors [1]; [4]): not lean mice
gene and protein expression of activated PSC marker αSMA (PAN02 tumors [1]; tumors from obese animals): reduce gene and protein expression
chemotherapy delivery (PAN02 tumors [1]; [5]): increase chemotherapy delivery
tumor perfusion (PAN02 tumors [1]; [5]): tended to improve perfusion
gene and protein expression of collagen-I and fibrillar collagen (PAN02 tumors [1]; [6]): decrease in gene and protein expression of collagen-I as well as fibrillar collagen

O=c1[nH]cc(F)c(=O)[nH]1 [5-FU, 5-fluorouracil]
reduction in tumor weight as compared to untreated controls (AK4.4 tumors; [7]): 50%
tumor weight (AK4.4 tumors; [8]): did not significantly reduce tumor weight
reduction in tumor weight as compared to untreated controls (PAN02 tumors [1]; [7]): 50%
tumor weight (PAN02 tumors [1]; [8]): did not significantly reduce tumor weight
delivery of 5-FU to tumors in obese mice versus lean (PAN02 tumors [2]): decreased
